Where two headings read alike, the source gives them in different places.
Tests used:
[1] = target: human adenosine A2B receptor (Homo sapiens (Human), UniProt P29275); assay: Adenosine A2B Receptor Cyclic AMP GS Assay; type: cell-based; conditions: HEK-293 cells expressing human A2B, agonist NECA 12 nM
Protocol: Example B. Adenosine A2B Receptor Cyclic AMP GS Assay
Stably transfected HEK-293 cells expressing the human adenosine A2B receptor (Perkin Elmer) were maintained in MEM culture medium with 10% FBS and 100 μg/mL Geneticin (Life Technologies). 18 to 24 hours prior to assay, geneticin was removed from culture. The cisbio cAMP-GS Dynamic kit utilizing the FRET (Fluorescence Resonance Energy Transfer) technology was used to measure cAMP accumulation in the cells. Compounds of the present disclosure at an appropriate concentration were mixed with 10000 cells/well in white 96 well half area plates (Perkin Elmer) for 30 min at room temperature gently shaking. Agonist, NECA (R&D Technologies) at 12 nM was added to each well for 60 min at room temperature gently shaking. Detection reagents, d2-labeled cAMP (acceptor) and anti-cAMP cryptate (donor) were added to each well for 60 min at rt gently shaking. Plates were read on Pherastar (BMG Labtech), fluorescence ratio 665/620 was calculated and EC50 determination was performed by fitting the curve of percent of control versus the log of the compound concentration using GraphPad Prism.

Adenosine A2A = Adenosine A2A (Homo sapiens (Human), UniProt P29274); assay: A2A Tag-Lite HTRF assay; type: binding
Chain of Adenosine A2A (P29274 whole entry): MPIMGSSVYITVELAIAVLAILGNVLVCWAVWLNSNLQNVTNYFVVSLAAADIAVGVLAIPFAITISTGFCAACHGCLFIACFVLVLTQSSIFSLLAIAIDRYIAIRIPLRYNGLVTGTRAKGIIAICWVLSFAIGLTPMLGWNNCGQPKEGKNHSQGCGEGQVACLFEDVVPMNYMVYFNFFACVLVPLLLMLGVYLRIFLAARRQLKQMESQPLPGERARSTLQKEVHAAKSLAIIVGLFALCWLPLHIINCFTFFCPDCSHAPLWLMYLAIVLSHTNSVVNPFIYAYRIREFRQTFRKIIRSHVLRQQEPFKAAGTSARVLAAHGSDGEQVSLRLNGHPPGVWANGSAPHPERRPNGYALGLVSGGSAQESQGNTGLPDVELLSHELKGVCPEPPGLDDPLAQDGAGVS
Description: Example C. A2A Tag-Lite® HTRF Assay

[2] = Tag-Lite Adenosine A2A labeled cells, fluorescent ligand 12.5 nM, read-out: A2A_Ki
[3] = read-out: A2A_Ki, Tag-Lite Adenosine A2A labeled cells, fluorescent ligand 12.5 nM

Chain of human adenosine A2B receptor (P29275 whole entry): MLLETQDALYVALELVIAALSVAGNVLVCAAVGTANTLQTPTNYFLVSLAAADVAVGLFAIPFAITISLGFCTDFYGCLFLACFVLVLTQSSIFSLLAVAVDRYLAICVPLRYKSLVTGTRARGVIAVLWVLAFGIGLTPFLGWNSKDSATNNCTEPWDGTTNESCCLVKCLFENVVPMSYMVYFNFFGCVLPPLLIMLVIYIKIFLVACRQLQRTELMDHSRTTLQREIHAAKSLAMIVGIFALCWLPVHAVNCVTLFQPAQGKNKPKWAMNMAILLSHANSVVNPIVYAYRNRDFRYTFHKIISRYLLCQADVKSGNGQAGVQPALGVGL

SMILES	EC50 ([1]; A2B_cAMP_EC50 (nM))	Ki (Adenosine A2A; [2])	Ki (Adenosine A2A)	EC50 ([1]; read-out: A2B_cAMP_EC50)	Ki (Adenosine A2A; [3])
CN(C)C(=O)Cn1cc(-c2cccc(F)c2Cc2nc3c(N)nc(-c4cccc(C#N)c4F)cn3n2)cn1 [Example 114, 2-(4-(2-((8-amino-6-(3-cyano-2-fluorophenyl)-[1,2,4]triazolo[1,5-a]pyrazin-2-yl)methyl)-3-fluorophenyl)-1H-pyrazol-1-yl)-N,N-dimethylacetamide]	10 to 100 nM	< 10 nM			
N#Cc1cccc(-c2cn3nc(Cc4ncccc4Nc4cnn(C5CCOCC5)c4)nc3c(N)n2)c1F [Example 121, 3-(8-amino-2-((3-((1-(tetrahydro-2H-pyran-4-yl)-1H-pyrazol-4-yl)amino)pyridin-2-yl)methyl)-[1,2,4]triazolo[1,5-a]pyrazin-6-yl)-2-fluorobenzonitrile]	10 to 100 nM	< 10 nM			
Cn1nncc1-c1c(-c2cccc(C#N)c2)nc(N)c2cc(Cc3ccccn3)nn12 [Example 37, 3-(4-Amino-7-(1-methyl-1H-1,2,3-triazol-5-yl)-2-(pyridin-2-ylmethyl)pyrazolo[1,5-a]pyrazin-6-yl)benzonitrile]	< 10 nM	< 10 nM			
CCn1nncc1-c1c(-c2cccc(C#N)c2)nc(N)c2cc(Cc3ccccn3)nn12 [Example 36, 3-(4-Amino-7-(1-ethyl-1H-1,2,3-triazol-5-yl)-2-(pyridin-2-ylmethyl)pyrazolo[1,5-a]pyrazin-6-yl)benzonitrile]	< 10 nM	< 10 nM			
Cn1cc(Cn2cc(-c3cccc(F)c3Cc3nc4c(N)nc(-c5cccc(C#N)c5F)cn4n3)cn2)cn1 [Example 99, 3-(8-amino-2-(2-fluoro-6-(1-((1-methyl-1H-pyrazol-4-yl)methyl)-1H-pyrazol-4-yl)benzyl)-[1,2,4]triazolo[1,5-a]pyrazin-6-yl)-2-fluorobenzonitrile]	10 to 100 nM	< 10 nM			
N#Cc1cccc(-c2nc(N)c3nc(C(O)c4cccc(F)c4F)nn3c2-c2ccncn2)c1 (single isomer, unassigned) [Example 53, 3-(8-Amino-2-((2,3-difluorophenyl)(hydroxy)methyl)-5-(pyrimidin-4-yl)-[1,2,4]triazolo[1,5-a]pyrazin-6-yl)benzonitrile]	< 10 nM		< 10 nM		
CCNC(=O)c1cc2c(N)nc(-c3cccc(C#N)c3)c(-c3ccnn3CC)n2n1 [Example 1, 4-Amino-6-(3-cyanophenyl)-N-ethyl-7-(1-ethyl-1H-pyrazol-5-yl)pyrazolo[1,5-a]pyrazine-2-carboxamide]	10 to 100 nM	< 10 nM			
Cn1nc(-c2c(-c3cccc(C#N)c3)nc(N)c3nc(C(N)c4c(F)cccc4F)nn23)ccc1=O (stereo not shown) [Example 81, 3-(8-amino-2-(amino(2,6-difluorophenyl)methyl)-5-(1-methyl-6-oxo-1,6-dihydropyridazin-3-yl)-[1,2,4]triazolo[1,5-a]pyrazin-6-yl)benzonitrile]	< 10 nM	< 10 nM			
CN1CCC(NCc2cccc(F)c2Cc2nc3c(N)nc(-c4cccc(C#N)c4)c(-c4ccncn4)n3n2)C1=O (stereo not shown) [Example 72, 3-(8-amino-2-(2-fluoro-6-(((1-methyl-2-oxopyrrolidin-3-yl)amino)methyl)benzyl)-5-(pyrimidin-4-yl)-[1,2,4]triazolo[1,5-a]pyrazin-6-yl)benzonitrile]	< 10 nM	< 10 nM			
N#Cc1cccc(-c2nc(N)c3nc(C(O)c4ccccc4Cl)nn3c2-c2ccncn2)c1 (single isomer, unassigned) [Example 57, 3-(8-Amino-2-((2-chlorophenyl)(hydroxy)methyl)-5-(pyrimidin-4-yl)-[1,2,4]triazolo[1,5-a]pyrazin-6-yl)benzonitrile]	< 10 nM		< 10 nM		
Cc1ncoc1-c1c(-c2cccc(C#N)c2)nc(N)c2nc(Cc3ccccn3)nn12 [Example 42, 3-(8-Amino-5-(4-methyloxazol-5-yl)-2-(pyridin-2-ylmethyl)-[1,2,4]triazolo[1,5-a]pyrazin-6-yl)benzonitrile]	< 10 nM	< 10 nM			
Cc1nc(C(O)C(F)(F)F)c(-c2c(-c3cccc(C#N)c3F)nc(N)c3nc(Cc4ccccn4)nn23)o1 (stereo not shown) [Example 88, 3-(8-amino-5-(2-methyl-4-(2,2,2-trifluoro-1-hydroxyethyl)oxazol-5-yl)-2-(pyridin-2-ylmethyl)-[1,2,4]triazolo[1,5-a]pyrazin-6-yl)-2-fluorobenzonitrile]	10 to 100 nM	< 10 nM			
N#Cc1cccc(-c2nc(N)c3nc(Cc4ccccn4)nn3c2-c2ccncn2)c1 [Example 27, 3-(8-Amino-2-(pyridin-2-ylmethyl)-5-(pyrimidin-4-yl)-[1,2,4]triazolo[1,5-a]pyrazin-6-yl)benzonitrile]	< 10 nM	< 10 nM			
N#CCCn1cc(-c2cccc(F)c2Cc2nc3c(N)nc(-c4cccc(C#N)c4F)cn3n2)cn1 [Example 117, 3-(8-amino-2-(2-(1-(2-cyanoethyl)-1H-pyrazol-4-yl)-6-fluorobenzyl)-[1,2,4]triazolo[1,5-a]pyrazin-6-yl)-2-fluorobenzonitrile]	< 10 nM	< 10 nM			
N#Cc1cccc(-c2nc(N)c3nc(C(O)c4ccccc4)nn3c2-c2ccncn2)c1 (stereo not shown) [Example 59, 3-(8-Amino-2-(hydroxy(phenyl)methyl)-5-(pyrimidin-4-yl)-[1,2,4]triazolo[1,5-a]pyrazin-6-yl)benzonitrile]	10 to 100 nM	< 10 nM			
Cc1cc(-c2c(-c3cccc(C#N)c3)nc(N)c3nc(C(O)c4c(F)cccc4F)nn23)cc(C)n1 (single isomer, unassigned) [Example 94, 3-(8-amino-2-((2,6-difluorophenyl)(hydroxy)methyl)-5-(2,6-dimethylpyridin-4-yl)-[1,2,4]triazolo[1,5-a]pyrazin-6-yl)benzonitrile]	10 to 100 nM		< 10 nM		
N#Cc1cccc(-c2nc(N)c3nc(C(=O)N4CCC4)nn3c2-c2ccncc2F)c1 [Example 125, 3-(8-amino-2-(azetidine-1-carbonyl)-5-(3-fluoropyridin-4-yl)-[1,2,4]triazolo[1,5-a]pyrazin-6-yl)benzonitrile]	10 to 100 nM	< 10 nM			
N#Cc1cccc(-c2nc(N)c3nc(C(O)c4ccccc4F)nn3c2-c2ccncn2)c1 (single isomer, unassigned) [Example 56, 3-(8-Amino-2-((2-fluorophenyl)(hydroxy)methyl)-5-(pyrimidin-4-yl)-[1,2,4]triazolo[1,5-a]pyrazin-6-yl)benzonitrile]				< 10 nM	< 10 nM
N#Cc1cccc(-c2nc(N)c3nc(Cc4c(F)cccc4CN4CCN5C(=O)CCC5C4)nn3c2-c2ccncn2)c1 (stereo not shown) [Example 67, 3-(8-amino-2-(2-fluoro-6-((6-oxohexahydropyrrolo[1,2-a]pyrazin-2(1H)-yl)methyl)benzyl)-5-(pyrimidin-4-yl)-[1,2,4]triazolo[1,5-a]pyrazin-6-yl)benzonitrile]	< 10 nM	< 10 nM			
N#Cc1cccc(-c2nc(N)c3nc(Cc4ccccc4CN[C@H]4CCNC4=O)nn3c2-c2ccncn2)c1 [Example 75, (S)-3-(8-amino-2-(2-(((2-oxopyrrolidin-3-yl)amino)methyl)benzyl)-5-(pyrimidin-4-yl)-[1,2,4]triazolo[1,5-a]pyrazin-6-yl)benzonitrile]	< 10 nM	< 10 nM			
N#Cc1cccc(-c2nc(N)c3nc(C(O)c4c(F)cccc4F)nn3c2-c2cnco2)c1 (single isomer, unassigned) [Example 106, 3-(8-amino-2-((2,6-difluorophenyl)(hydroxy)methyl)-5-(oxazol-5-yl)-[1,2,4]triazolo[1,5-a]pyrazin-6-yl)benzonitrile]				< 10 nM	< 10 nM
N#Cc1cccc(-c2nc(N)c3nc(C(O)c4cc(F)ccc4F)nn3c2-c2ccncn2)c1 (single isomer, unassigned) [Example 51, 3-(8-Amino-2-((2,5-difluorophenyl)(hydroxy)methyl)-5-(pyrimidin-4-yl)-[1,2,4]triazolo[1,5-a]pyrazin-6-yl)benzonitrile]	< 10 nM		< 10 nM		
N#Cc1cccc(-c2nc(N)c3cc(Nc4ccccc4)nn3c2-c2ccncc2)c1 [Example 25, 3-(4-Amino-2-(phenylamino)-7-(pyridin-4-yl)pyrazolo[1,5-a]pyrazin-6-yl)benzonitrile]	10 to 100 nM	< 10 nM			
N#Cc1cccc(-c2nc(N)c3nc(Cc4ccccc4CN4CC[C@H](O)C4)nn3c2-c2ccncn2)c1 [Example 123, (S)-3-(8-Amino-2-(2-((3-hydroxypyrrolidin-1-yl)methyl)benzyl)-5-(pyrimidin-4-yl)-[1,2,4]triazolo[1,5-a]pyrazin-6-yl)benzonitrile]	10 to 100 nM	< 10 nM			
N#Cc1cccc(-c2nc(N)c3nc(Cn4cc5ccccc5n4)nn3c2-c2ccncn2)c1 [Example 47, 3-(2-((2H-Indazol-2-yl)methyl)-8-amino-5-(pyrimidin-4-yl)-[1,2,4]triazolo[1,5-a]pyrazin-6-yl)benzonitrile]	10 to 100 nM	< 10 nM			
N#Cc1cccc(-c2nc(N)c3cc(C(O)c4ccccc4F)nn3c2Br)c1 (stereo not shown) [Example 22, 3-(4-Amino-7-bromo-2-((2-fluorophenyl)(hydroxy)methyl)pyrazolo[1,5-a]pyrazin-6-yl)benzonitrile]	100 to 1000 nM	< 10 nM			

From patent US11161850B2, “Fused pyrazine derivatives as A2A / A2B inhibitors” (Incyte Corporation, priority 2018, dated 2021)
